Source: US9782361B2 (Katholieke Universiteit Leuven, priority 2011, dated 2017)

Key:
[1] = system: PTZ-induced seizures in zebrafish larvae; experiment: Zebrafish PTZ seizure assay (videotracking of larval locomotor activity); type: in vivo
Procedure: Zebrafish larvae from 7-dpf were tracked using the ViewPoint VideoTrack System for Zebrafish™ (Version 2.3.1.0, ViewPoint, France). The system consists of an infrared light source, a high-resolution digital videocamera to capture larval movements within a defined time period (30 minutes in our experimental set-up) and the software to analyze larval locomotor activity (FIG. 1).
The highest concentration tested corresponds to the previously determined MTC. Zebrafish larvae were placed in a 96-well plate (tissue culture plate, flat bottom, FALCON®, USA); one larva per well. Each row of the plate (12 wells) comprised different treatment groups. Two adjacent rows contain the same compound but received two different treatments: a) first row, embryo medium (DMSO 1%), and b) second row, PTZ 20 mM. The first two rows of the plate (vehicle control group, where vehicle was embryo medium) contained a volume of 100 μl of embryo medium (1% DMSO) per well. The following three test groups (two rows each) contained 100 μl of different concentrations of test compound in embryo medium. The larvae thus treated were incubated at room temperature in dark and quiet conditions for 1 hour. Embryo medium (100 μl) was added to the first rows of each one of the four groups. Likewise, 100 μl of PTZ 40 mM were added to the second rows of each treatment group (final concentration of PTZ: 20 mM). Thus, the movement pattern of the exposed zebrafish larvae was video-tracked and assessed in presence of embryo medium (1% DMSO) and PTZ 20 mM. Videotracking of larval movements was started 5 minutes after addition of embryo medium or PTZ to the wells and was recorded for 30 minutes. A total of 8 wells in each plate were left without larvae (medium only) as a negative control, so that each experimental parameter consisted of an average of 10 to 12 larvae. The tracker software measured three periods of 10 minutes of larvae movement. Results were registered as the average value of the total time of larvae movement during 30 minutes. The figures shown are representative of a series of two similar experiments.
All statistical analyses were performed using GraphPad Prism 5 software (GraphPad Software, Inc.). Values were presented as means±standard deviation (SD). The locomotor activity of zebrafish larvae was analyzed using one-way ANOVA followed by Dunnett's multiple comparison test. Statistically significant differences (p<0.05) between a treated group and the equivalent control groups (vehicle or PTZ) were considered indicative of decrease or increase in locomotor activity of zebrafish larvae. For mouse experiments, significant differences between estimated time intervals prior to above-mentioned seizure stages were calculated using the unpaired Student's t-test.

[2] = system: PTZ-induced seizures in mice; experiment: Mouse PTZ-induced seizure assay (PTZ tail vein infusion); type: in vivo
Procedure: Mice were randomly divided into groups of five animals (vehicle (where vehicle was polyethylene glycol 200 (PEG200):water 1:1) and sample). The animals were pre-warmed under an infrared lamp for 10 minutes to dilate the tail veins. They were then placed in a restrainer and the lateral tail vein was catheterized with 1-cm long, 29-gauge needle. The needle was secured to the tail with surgical tape after confirming a correct placement. The needle was attached to a 0.7-m long polyethylene tubing connected to two 2.5-ml glass syringes containing: a) sample (control vehicle or test compounds) and b) PTZ (7.5 mg/ml ddH2O). These syringes were mounted on an infusion pump (ALADOIN-1000 11 VDC, 0.75 Å, World Precision Instruments). Thus, 100 μL of control vehicle (PEG 200: ddH2O 1:1) or test compounds (turmeric oil and ar-turmerone) were IV infused at the rate of 50 μl/min for 2 minutes. Ten minutes later, mice were released from the restrainer and placed in a transparent plastic cage for observation.
PTZ was constantly infused at the rate of 150 μl/min. Seizure manifestation stages in mice were scored according to the time between the start of PTZ infusion and the following behavioral events: ear, tail and myoclonic twitch, forelimb clonus, falling, tonic hindlimb extension and death (28). Behavior was observed up to 5 minutes of PTZ infusion. In case of any surviving mice, they were sacrificed.
PTZ doses were calculated according to the formula: PTZ dose [mg/kg]=(PTZ concentration [mg/ml]×infusion rate [ml/s]×infusion duration [s]×1000)/mouse weight [g]). All work solutions contained heparine (20 μl/ml).
All statistical analyses were performed using GraphPad Prism 5 software (GraphPad Software, Inc.). Values were presented as means±standard deviation (SD). […] For mouse experiments, significant differences between estimated time intervals prior to above-mentioned seizure stages were calculated using the unpaired Student's t-test.

[3] = system: 6 Hz corneal stimulation-induced seizures in mice; experiment: 6 Hz psychomotor seizure model of partial epilepsy; type: in vivo, mouse
Procedure: For assessing the anti-convulsant activity of ar-Tumerone, the 6 Hz psychomotor seizure model of partial epilepsy (Barton M. E. et al., 2001) was used, thereby applying the following stimulation parameters: 6 Hz, 0.2 ms rectangular pulse width, 3 s duration.
Every mouse (male NMRI+/−30 g) was administered the compound (ar-tumerone 50 mg/kg, 20 mg/kg, 1 mg/kg and 100 μg/kg) or vehicle (PEG 200:DMSO 1:1) via i.p. injection. After 30 minutes of incubation, seizures were induced via corneal stimulation using the Ugo-Basil device. Prior to the placement of corneal electrodes, a drop of 0.5% xylocaine was applied to the eyes of the animal. Animals were restrained manually and released immediately in a transparent plastic cage following the stimulation. Then, the animal was observed. The seizure was characterized by stun, forelimb clonus, twitching of vibrissae, straub-tail for at least 45 s. Protection was defined as the absence of a seizure. A minimum of six animals per dose was used. […] Negative control (only vehicle) and positive control (valproic acid 300 mg/kg) were included as well. As expected, 6 out of 6 mice treated with only vehicle were not protected and 6 out of 6 mice treated with valproic acid were protected.

[4] = 10 μg/mL, 1 hour pre-incubation, PTZ 20 mM, 30 min tracking
[5] = 46 μM, PTZ 20 mM, 30 min tracking

`CC(C)=CC(=O)C[C@H](C)c1ccc(C)cc1` [ar-turmerone] was tested, and the “anticonvulsant activity (decrease of PTZ-induced seizure movements)” value [1, 4] was “Significant decrease of the seizures triggered by PTZ”, the “anticonvulsant activity (decrease of PTZ-induced seizure movements)” value [1, 5] was “anticonvulsant activity” and the “required dose of PTZ to trigger all assessed events” value ([2]; 50 mg/kg infused, tonic hindlimb extension p<0.05, other events and death p<0.01) was “significant resistance to the generation of seizures”. For the same compound, the “PTZ dose for generating seizure behaviors” value ([2]; 200 mg/kg, ear, tail and myoclonic twitch, tonic hind limb extension and death (p<0.05)) was “significant PTZ dose increase”, the “mice protected from seizures” value ([3]; 100 μg/kg i.p., 30 minutes before stimulation, n=6) was “Six out of six” and the “mice protected from seizures” value ([3]; 1 mg/kg i.p., 30 minutes before stimulation, n=6) was “Six out of six”. The “mice protected from seizures” value ([3]; 20 mg/kg i.p., 30 minutes before stimulation, n=6) was “Six out of six” and the “mice protected from seizures” value ([3]; 50 mg/kg i.p., 30 minutes before stimulation, n=6) was “Six out of six”.

With `COc1cc(/C=C/C(=O)CC(=O)/C=C/c2ccc(O)c(OC)c2)ccc1O` [curcumin, reference compound] the “anticonvulsant activity (decrease of PTZ-induced seizure movements)” value ([1]; concentration not given) was “potent activity in inhibiting PTZ-induced seizures”.

In the case of `CN1C(=O)CN=C(c2ccccc2)c2cc(Cl)ccc21` [diazepam, reference compound], the “anticonvulsant activity (decrease of PTZ-induced seizure movements)” value ([1]; 1.42 μg/ml, PTZ 20 mM, 30 min tracking) was “decreased PTZ-induced movements” and the “anticonvulsant activity (decrease of PTZ-induced seizure movements)” value ([1]; 14.23 μg/ml, PTZ 20 mM, 30 min tracking) was “decreased PTZ-induced movements”.

`O=C1NC(=O)C(c2ccccc2)(c2ccccc2)N1` [phenytoin, reference compound] was tested, and the “anticonvulsant activity (decrease of PTZ-induced seizure movements)” value ([1]; 75 μg/ml, PTZ 20 mM, 30 min tracking) was “significant activity” and the “anticonvulsant activity (decrease of PTZ-induced seizure movements)” value ([1]; 252.26 μg/ml, PTZ 20 mM, 30 min tracking) was “significant activity”.

In the case of `CCCC(CCC)C(=O)[O-].[Na+]` [sodium valproate, reference compound], the “anticonvulsant activity (decrease of PTZ-induced seizure movements)” value ([1]; concentration not given) was “able to control seizures generation” and the “delay of seizure behaviors (PTZ tail infusion)” value ([2]; 50 mg/kg, tonic hindlimb extension p<0.01, death p<0.05) was “capable of delaying tonic hindlimb extension”.

With `CCCC(CCC)C(=O)O` [valproic acid, reference compound] the “mice protected from seizures” value ([3]; 300 mg/kg, positive control) was 6 out of 6.

For α-atlantone, the “anticonvulsant activity (decrease of PTZ-induced seizure movements)” value ([1]; 5 μg/mL, 1 hour pre-incubation, PTZ 20 mM, 30 min tracking) was “Significant decrease of the seizures triggered by PTZ”, the “anticonvulsant activity (decrease of PTZ-induced seizure movements)” value [1, 4] was “Significant decrease of the seizures triggered by PTZ” and the “anticonvulsant activity (decrease of PTZ-induced seizure movements)” value ([1]; 23 μM, PTZ 20 mM, 30 min tracking) was “anticonvulsant activity”. The “anticonvulsant activity (decrease of PTZ-induced seizure movements)” value [1, 5] was “anticonvulsant activity”.
